According to patent US12391648B2, “Pyridyloxy thioester derivative and preparation method therefor, herbicidal composition, and application” (Qingdao Kingagroot Chemical Compound Co., Ltd., priority 2018, dated 2025):

Columns and labels:
Assay in all cases: Post-emergence test experiment (Table 3, 1000 g/ha)
Format in all cases: in vivo
Settings in all cases: post-emergence spray, after 3 weeks, fresh weight inhibition
[1] = system: Setaria viridis
In short: (§1)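 Weed seeds sown in soil-filled pots in greenhouse, sprayed at 2-3 leaf stage (2 weeks after sowing) with compound in acetone/tween-80 plus methyl oleate emulsible concentrate (1.5 L/ha) diluted in water. Fresh-weight growth inhibition scored after 3 weeks on 0-5 scale (5: >85%, 0: <5%).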

[2] = system: Digitaria sanguinalis
In short: as §1

[3] = system: Monochoria vaginalis
In short: as §1

[4] = system: Galium spurium
In short: as §1

[5] = system: Leptochloa chinensis
In short: as §1

[6] = system: Abutilon theophrasti
In short: as §1

| Compound | Activity level (growth inhibition rate) Setaria viridis [1] | Activity level (growth inhibition rate) Digitaria sanguinalis [2] | Activity level (growth inhibition rate) Monochoria Vaginalis [3] | Activity level (growth inhibition rate) Galium spurium [4] | Activity level (growth inhibition rate) Leptochloa chinensis [5] | Activity level (growth inhibition rate) Abutilon theophrasti [6] |
| --- | --- | --- | --- | --- | --- | --- |
| CC(Oc1nc(F)c(Cl)c(N)c1Cl)C(=O)SC1CCC1 (stereo not drawn) [Compound 124] | 5 (Level 5: the growth inhibition rate is greater than 85%) | 5 (Level 5: the growth inhibition rate is greater than 85%) | 5 (Level 5: the growth inhibition rate is greater than 85%) | 5 (Level 5: the growth inhibition rate is greater than 85%) | 5 (Level 5: the growth inhibition rate is greater than 85%) | 5 (Level 5: the growth inhibition rate is greater than 85%) |
| CCCSC(=O)C(C)Oc1nc(F)c(Cl)c(N)c1Cl (stereo not drawn) [Compound 67] | 5 (Level 5: the growth inhibition rate is greater than 85%) | 5 (Level 5: the growth inhibition rate is greater than 85%) | 5 (Level 5: the growth inhibition rate is greater than 85%) | 5 (Level 5: the growth inhibition rate is greater than 85%) | 5 (Level 5: the growth inhibition rate is greater than 85%) | 5 (Level 5: the growth inhibition rate is greater than 85%) |
| CCCC(C)SC(=O)C(C)Oc1nc(F)c(Cl)c(N)c1Cl (stereo not drawn) [Compound 144] | 5 (Level 5: the growth inhibition rate is greater than 85%) | 5 (Level 5: the growth inhibition rate is greater than 85%) | 5 (Level 5: the growth inhibition rate is greater than 85%) | 5 (Level 5: the growth inhibition rate is greater than 85%) | 5 (Level 5: the growth inhibition rate is greater than 85%) | 5 (Level 5: the growth inhibition rate is greater than 85%) |
| CC(C)CCSC(=O)C(C)Oc1nc(F)c(Cl)c(N)c1Cl (stereo not drawn) [Compound 146] | 5 (Level 5: the growth inhibition rate is greater than 85%) | 5 (Level 5: the growth inhibition rate is greater than 85%) | 5 (Level 5: the growth inhibition rate is greater than 85%) | 5 (Level 5: the growth inhibition rate is greater than 85%) | 5 (Level 5: the growth inhibition rate is greater than 85%) | 5 (Level 5: the growth inhibition rate is greater than 85%) |
| CSC(=O)C(C)Oc1ncc(C(C)C)c(N)c1Cl (stereo not drawn) [Compound 9] | 5 (Level 5: the growth inhibition rate is greater than 85%) | 5 (Level 5: the growth inhibition rate is greater than 85%) | 5 (Level 5: the growth inhibition rate is greater than 85%) | 5 (Level 5: the growth inhibition rate is greater than 85%) | 5 (Level 5: the growth inhibition rate is greater than 85%) | 5 (Level 5: the growth inhibition rate is greater than 85%) |
| CCC(C)CSC(=O)C(C)Oc1nc(F)c(Cl)c(N)c1Cl (stereo not drawn) [Compound 145] | 5 (Level 5: the growth inhibition rate is greater than 85%) | 5 (Level 5: the growth inhibition rate is greater than 85%) | 5 (Level 5: the growth inhibition rate is greater than 85%) | 5 (Level 5: the growth inhibition rate is greater than 85%) | 5 (Level 5: the growth inhibition rate is greater than 85%) | 5 (Level 5: the growth inhibition rate is greater than 85%) |
| CSC(=O)C(C)Oc1nc(Cl)c(Cl)c(N)c1Cl (stereo not drawn) [Compound 2] | 5 (Level 5: the growth inhibition rate is greater than 85%) | 5 (Level 5: the growth inhibition rate is greater than 85%) | 5 (Level 5: the growth inhibition rate is greater than 85%) | 5 (Level 5: the growth inhibition rate is greater than 85%) | 5 (Level 5: the growth inhibition rate is greater than 85%) | 5 (Level 5: the growth inhibition rate is greater than 85%) |
| COc1ccc(SC(=O)C(C)Oc2nc(F)c(Cl)c(N)c2Cl)cc1 (stereo not drawn) [Compound 111] | 5 (Level 5: the growth inhibition rate is greater than 85%) | 5 (Level 5: the growth inhibition rate is greater than 85%) | 5 (Level 5: the growth inhibition rate is greater than 85%) | 5 (Level 5: the growth inhibition rate is greater than 85%) | 5 (Level 5: the growth inhibition rate is greater than 85%) | 5 (Level 5: the growth inhibition rate is greater than 85%) |
| CC(C)=NOCCSC(=O)C(C)Oc1nc(C)c(Cl)c(N)c1Cl (stereo not drawn) [Compound 5] | 5 (Level 5: the growth inhibition rate is greater than 85%) | 5 (Level 5: the growth inhibition rate is greater than 85%) | 5 (Level 5: the growth inhibition rate is greater than 85%) | 5 (Level 5: the growth inhibition rate is greater than 85%) | 5 (Level 5: the growth inhibition rate is greater than 85%) | 5 (Level 5: the growth inhibition rate is greater than 85%) |
| Cc1cc(SC(=O)C(C)Oc2nc(F)c(Cl)c(N)c2Cl)n(C)n1 (stereo not drawn) [Compound 117] | 5 (Level 5: the growth inhibition rate is greater than 85%) | 5 (Level 5: the growth inhibition rate is greater than 85%) | 5 (Level 5: the growth inhibition rate is greater than 85%) | 5 (Level 5: the growth inhibition rate is greater than 85%) | 5 (Level 5: the growth inhibition rate is greater than 85%) | 5 (Level 5: the growth inhibition rate is greater than 85%) |
| CC(Oc1nc(F)c(Cl)c(N)c1Cl)C(=O)Sc1cccs1 (stereo not drawn) [Compound 121] | 5 (Level 5: the growth inhibition rate is greater than 85%) | 5 (Level 5: the growth inhibition rate is greater than 85%) | 5 (Level 5: the growth inhibition rate is greater than 85%) | 5 (Level 5: the growth inhibition rate is greater than 85%) | 5 (Level 5: the growth inhibition rate is greater than 85%) | 5 (Level 5: the growth inhibition rate is greater than 85%) |
| CSC(=O)C(C)Oc1nc(Cl)c(C2CC2)c(N)c1Cl (stereo not drawn) [Compound 10] | 5 (Level 5: the growth inhibition rate is greater than 85%) | 5 (Level 5: the growth inhibition rate is greater than 85%) | 5 (Level 5: the growth inhibition rate is greater than 85%) | 5 (Level 5: the growth inhibition rate is greater than 85%) | 5 (Level 5: the growth inhibition rate is greater than 85%) | 5 (Level 5: the growth inhibition rate is greater than 85%) |
| CC(Oc1nc(F)c(Cl)c(N)c1Cl)C(=O)SC1CCCC1 (stereo not drawn) [Compound 125] | 5 (Level 5: the growth inhibition rate is greater than 85%) | 5 (Level 5: the growth inhibition rate is greater than 85%) | 5 (Level 5: the growth inhibition rate is greater than 85%) | 5 (Level 5: the growth inhibition rate is greater than 85%) | 5 (Level 5: the growth inhibition rate is greater than 85%) | 5 (Level 5: the growth inhibition rate is greater than 85%) |
| CCCCCCCCCCCSC(=O)C(C)Oc1nc(F)c(Cl)c(N)c1Cl (stereo not drawn) [Compound 142] | 5 (Level 5: the growth inhibition rate is greater than 85%) | 5 (Level 5: the growth inhibition rate is greater than 85%) | 5 (Level 5: the growth inhibition rate is greater than 85%) | 5 (Level 5: the growth inhibition rate is greater than 85%) | 5 (Level 5: the growth inhibition rate is greater than 85%) | 5 (Level 5: the growth inhibition rate is greater than 85%) |
